Type in all cases: biochemical
For experiment [1], the target named is T1, Human TMPRSS2-(AA 106-492) (Homo sapiens, UniProt O15393).
T1 construct: Human TMPRSS2-(AA 106-492)-; purchased CusaBio CSB-YP023924HU; host or cells: yeast
The experiment can be described thus: TMPRSS2 Assay 2 (Example 42), 384-well primary assay. The settings on record: TMPRSS2 20 nM, substrate 40 μM, 150 min at room temperature. As for the experimental part:
The concentration-response testing of compounds was in primary, readout counter as 11-point compound dilution series in 384-well assay plate format in triplicates (n=3). The compound dilutions was prepared in an intermediate plate (spot volume=150 nL), and then the assay reagents were prepared. After preparing the intermediate plates containing the assay reagents for the transfer into the assay plate using the Selma 384/25 μl pipettor, the assay reagents were transferred into the assay plate.
The resulting plate was centrifuged at g=290 for 30 s, and then the plate was incubated at room temperature for 150 minutes. 10 μl 2.5× of stop reagent (50 mM acetic acid) (Selma) was added, and then the plate was read on Safire e.
The materials, reagents, and equipment used for the assay is described in Table 3, Table 4, Table 5, and Table 6.
For the primary assay, the assay buffer (50 mM Tris-HCL, 150 mM NaCl, 0.01% Tween®20, pH8.0) was prepared using the stocks as described in Table 7.
The enzyme dilution was prepared as described in Table 8.
The final assay concentration was referred to 15 μl assay volume. Using a “greiner-dilution” as intermediate plate, the according wells were filled ([…]). The volume was adjusted using another plate type. Substrate dilution was prepared as described in Table 9.
The final assay concentration was referred to 15 μl assay volume. The DMSO concentration of the substrate working dilution was 1.2%. Using a “greiner-dilution” as intermediate plate, the according wells were filled (23 μl). Using another plate type, the volume was adjusted.
The compounds were dissolved in DM50. 150 nl of the compound were transferred into the assay plate prior to addition of the assay components (final assay volume of 15 μl).
The final concentration of the tool compound (low control) in the assay (assay volume l) was 0.8 μM. For the High control 5 μl/well […] was filled in column 6. The readout settings are described in Table 14. The readout was performed utilizing Safire^2 Microplate Reader. […]

Another experiment concerns the target Cathepsin B (Homo sapiens, UniProt P07858). The experiment can be described thus: Non-TMPRSS2 protease panel: Cathepsin B. The note with it: 10-dose, 3-fold from 10 μM. As for the experimental part: (§1) Biochemical activity of compound 1 (racemic mixture, batch 1), compound 3 (racemic), compound 11, and compound 2 (enantiomer 1, batch 1) in proteases indicated in Table 21, Table 22, Table 23, and Table 24, respectively, were measured by testing the compounds in a 10-dose IC50 with a 3-fold series dilution starting at 10 μM against the proteases. The protease activities were monitored as a time-course measurement of the increase in fluorescence signal from fluorescently-labeled peptide substrate, and initial linear portion of slope (signal/min) was analyzed. The curve fits were performed when the activities at the highest concentration of compounds were less than 65%.

A further experiment deals with Cathepsin L (Homo sapiens, UniProt P07711). The experiment can be described thus: Non-TMPRSS2 protease panel: Cathepsin L. The settings on record: 10-dose, 3-fold from 10 μM. As for the experimental part: as §1
The target in a further experiment is T2, FVIIa (Homo sapiens, UniProt P08709).
T2 construct: Elastase, FVIIa, Fxa, FXIa
T2 sequence (P08709 213-466 limits assumed): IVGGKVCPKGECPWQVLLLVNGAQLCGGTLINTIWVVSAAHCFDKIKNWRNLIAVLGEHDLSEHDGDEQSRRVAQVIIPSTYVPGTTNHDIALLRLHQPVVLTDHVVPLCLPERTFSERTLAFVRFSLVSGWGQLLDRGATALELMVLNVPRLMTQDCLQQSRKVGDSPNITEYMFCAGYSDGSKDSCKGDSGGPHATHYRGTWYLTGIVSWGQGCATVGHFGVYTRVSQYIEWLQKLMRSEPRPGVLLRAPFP
T2 sequence (P08709 61-212 partner limits assumed): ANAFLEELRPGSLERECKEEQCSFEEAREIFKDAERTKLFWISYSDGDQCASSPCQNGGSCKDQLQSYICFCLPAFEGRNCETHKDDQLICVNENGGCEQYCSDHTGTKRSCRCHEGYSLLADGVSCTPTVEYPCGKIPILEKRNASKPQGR
Put plainly: Non-TMPRSS2 protease panel: FVIIa. The settings on record: 10-dose, 3-fold from 10 μM. As for the experimental part: as §1

In a further experiment the target is Furin (Homo sapiens, UniProt P09958). Put plainly: Non-TMPRSS2 protease panel: Furin. The settings on record: 10-dose, 3-fold from 10 μM. As to the method:
as §1

Another experiment has as its target T3, Kallikrein 5 (Homo sapiens, UniProt Q9Y337).
T3 sequence (Q9Y337 23-293): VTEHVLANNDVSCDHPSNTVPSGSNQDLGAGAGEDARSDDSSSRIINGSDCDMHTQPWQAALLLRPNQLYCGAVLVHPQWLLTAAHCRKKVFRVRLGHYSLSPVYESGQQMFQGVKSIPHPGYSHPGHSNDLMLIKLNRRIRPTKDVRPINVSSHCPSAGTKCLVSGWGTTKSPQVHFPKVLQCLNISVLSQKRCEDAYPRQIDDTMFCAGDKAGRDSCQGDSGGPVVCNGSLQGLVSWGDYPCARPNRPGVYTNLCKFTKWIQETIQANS
Put plainly: Non-TMPRSS2 protease panel: Kallikrein 5. The settings on record: 10-dose, 3-fold from 10 μM. As to the method: as §1

A further experiment has as its target Kallikrein 7 (Homo sapiens, UniProt P49862). Put plainly: Non-TMPRSS2 protease panel: Kallikrein 7. The note with it: 10-dose, 3-fold from 10 μM. As for the experimental part:
as §1

The target of another experiment is Plasma Kallikrein (Homo sapiens, UniProt P03952). Put plainly: Non-TMPRSS2 protease panel: Plasma Kallikrein. The note with it: 10-dose, 3-fold from 10 μM. As to the method: as §1
The target in another experiment is TACE (Homo sapiens, UniProt P78536). The experiment can be described thus: Non-TMPRSS2 protease panel: TACE. The note with it: 10-dose, 3-fold from 10 μM. As to the method: as §1
The target in the next experiment is Thrombin a (Homo sapiens, UniProt P00734). The experiment can be described thus: Non-TMPRSS2 protease panel: Thrombin a. The settings on record: 10-dose, 3-fold from 10 μM. As for the experimental part:
as §1

The next experiment has as its target Tryptase g1 (Homo sapiens, UniProt Q9NRR2). The experiment can be described thus: Non-TMPRSS2 protease panel: Tryptase g1. The settings on record: 10-dose, 3-fold from 10 μM. As for the experimental part:
as §1

The text below walks through data of US20240132457A1, “3-(2-(BENZO[D]THIAZOL-2-YL)-2-(PHENYLSUFONAMIDO)ETHYL)BENZIMIDAMIDE DERIVATIVES AND RELATED COMPOUNDS AS TMPRSS2 INHIBITORS FOR THE TREATMENT OF VIRAL INFECTIONS” (INTEGERBIO, INC., priority 2020, published 2024).

Bounds are passed on as bounds.

Sequence of Furin (P09958 108-794): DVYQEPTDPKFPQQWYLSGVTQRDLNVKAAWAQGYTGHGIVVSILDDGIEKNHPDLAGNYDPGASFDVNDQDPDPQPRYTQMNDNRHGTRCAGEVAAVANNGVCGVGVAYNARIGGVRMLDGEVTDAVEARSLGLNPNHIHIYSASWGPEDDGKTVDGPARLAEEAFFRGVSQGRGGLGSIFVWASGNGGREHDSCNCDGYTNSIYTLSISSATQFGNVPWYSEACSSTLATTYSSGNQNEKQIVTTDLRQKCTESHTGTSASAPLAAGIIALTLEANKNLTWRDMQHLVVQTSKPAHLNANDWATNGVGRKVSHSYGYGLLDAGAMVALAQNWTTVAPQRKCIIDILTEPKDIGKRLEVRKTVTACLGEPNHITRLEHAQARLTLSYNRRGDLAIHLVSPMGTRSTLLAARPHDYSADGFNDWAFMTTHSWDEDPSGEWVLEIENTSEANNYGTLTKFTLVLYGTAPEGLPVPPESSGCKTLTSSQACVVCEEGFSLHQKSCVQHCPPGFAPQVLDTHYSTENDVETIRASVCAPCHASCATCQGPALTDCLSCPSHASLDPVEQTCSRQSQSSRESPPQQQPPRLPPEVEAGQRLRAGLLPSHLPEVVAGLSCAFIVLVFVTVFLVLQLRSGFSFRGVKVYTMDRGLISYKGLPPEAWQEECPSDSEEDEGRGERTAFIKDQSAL
Sequence of Tryptase g1 (Q9NRR2 20-321): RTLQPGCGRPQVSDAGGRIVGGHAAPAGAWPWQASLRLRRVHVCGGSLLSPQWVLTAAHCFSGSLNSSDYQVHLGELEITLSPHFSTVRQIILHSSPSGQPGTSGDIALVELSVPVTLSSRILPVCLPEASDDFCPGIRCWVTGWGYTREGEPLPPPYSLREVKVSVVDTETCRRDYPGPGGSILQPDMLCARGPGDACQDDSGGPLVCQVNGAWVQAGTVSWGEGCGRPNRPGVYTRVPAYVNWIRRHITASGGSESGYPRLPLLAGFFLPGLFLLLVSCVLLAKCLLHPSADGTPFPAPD
Sequence of TACE (P78536 215-824): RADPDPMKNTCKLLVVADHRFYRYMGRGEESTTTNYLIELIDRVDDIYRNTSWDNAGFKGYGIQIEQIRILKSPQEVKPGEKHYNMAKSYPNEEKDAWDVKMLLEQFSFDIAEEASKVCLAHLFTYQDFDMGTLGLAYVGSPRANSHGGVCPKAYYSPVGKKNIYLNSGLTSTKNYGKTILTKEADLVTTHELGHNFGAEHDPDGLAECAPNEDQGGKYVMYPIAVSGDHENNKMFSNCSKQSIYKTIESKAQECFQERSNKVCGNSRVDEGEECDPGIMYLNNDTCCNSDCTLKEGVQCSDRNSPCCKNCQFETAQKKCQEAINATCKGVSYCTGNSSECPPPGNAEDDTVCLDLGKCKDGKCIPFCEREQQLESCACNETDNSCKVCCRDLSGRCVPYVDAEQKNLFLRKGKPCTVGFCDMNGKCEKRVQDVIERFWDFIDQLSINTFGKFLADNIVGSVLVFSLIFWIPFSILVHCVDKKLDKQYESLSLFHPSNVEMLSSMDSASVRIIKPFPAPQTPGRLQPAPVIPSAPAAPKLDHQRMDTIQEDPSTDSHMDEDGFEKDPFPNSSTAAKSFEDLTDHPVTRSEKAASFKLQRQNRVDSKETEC
Sequence of Cathepsin L (P07711 114-333): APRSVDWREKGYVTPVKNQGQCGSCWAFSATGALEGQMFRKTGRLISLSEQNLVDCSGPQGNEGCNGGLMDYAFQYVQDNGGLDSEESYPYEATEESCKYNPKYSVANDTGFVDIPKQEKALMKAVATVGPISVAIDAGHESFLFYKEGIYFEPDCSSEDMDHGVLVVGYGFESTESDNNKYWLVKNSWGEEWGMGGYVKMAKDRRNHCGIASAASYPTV
T1 sequence (O15393 106-492): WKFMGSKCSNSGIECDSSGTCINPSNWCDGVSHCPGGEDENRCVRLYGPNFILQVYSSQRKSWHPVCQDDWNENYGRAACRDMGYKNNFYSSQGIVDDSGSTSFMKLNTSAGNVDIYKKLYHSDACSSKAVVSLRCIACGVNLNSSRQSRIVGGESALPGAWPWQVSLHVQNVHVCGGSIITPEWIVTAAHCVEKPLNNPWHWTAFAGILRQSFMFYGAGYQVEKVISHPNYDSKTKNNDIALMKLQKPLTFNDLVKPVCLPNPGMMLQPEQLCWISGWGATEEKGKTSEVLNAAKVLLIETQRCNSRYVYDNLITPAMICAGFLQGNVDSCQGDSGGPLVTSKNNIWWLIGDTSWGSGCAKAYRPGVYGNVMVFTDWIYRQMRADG
Sequence of Plasma Kallikrein (P03952 391-638 limits assumed): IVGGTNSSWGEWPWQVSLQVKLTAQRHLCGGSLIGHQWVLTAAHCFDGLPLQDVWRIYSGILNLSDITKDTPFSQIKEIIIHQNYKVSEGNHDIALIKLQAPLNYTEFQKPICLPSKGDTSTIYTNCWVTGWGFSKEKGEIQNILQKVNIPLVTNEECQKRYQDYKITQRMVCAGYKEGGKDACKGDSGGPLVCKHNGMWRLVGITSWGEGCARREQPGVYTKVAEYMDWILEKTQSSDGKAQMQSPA
Sequence of Plasma Kallikrein (P03952 20-390 partner limits assumed): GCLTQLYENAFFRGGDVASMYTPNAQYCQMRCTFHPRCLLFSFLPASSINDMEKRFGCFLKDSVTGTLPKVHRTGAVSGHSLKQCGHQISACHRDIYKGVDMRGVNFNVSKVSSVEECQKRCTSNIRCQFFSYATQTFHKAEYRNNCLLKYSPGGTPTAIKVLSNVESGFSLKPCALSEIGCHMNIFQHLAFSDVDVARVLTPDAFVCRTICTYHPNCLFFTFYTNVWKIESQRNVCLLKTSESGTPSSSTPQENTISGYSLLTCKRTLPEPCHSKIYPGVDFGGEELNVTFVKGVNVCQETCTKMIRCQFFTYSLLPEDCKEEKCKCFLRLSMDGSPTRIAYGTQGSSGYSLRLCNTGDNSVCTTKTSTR
Sequence of Kallikrein 7 (P49862 30-253): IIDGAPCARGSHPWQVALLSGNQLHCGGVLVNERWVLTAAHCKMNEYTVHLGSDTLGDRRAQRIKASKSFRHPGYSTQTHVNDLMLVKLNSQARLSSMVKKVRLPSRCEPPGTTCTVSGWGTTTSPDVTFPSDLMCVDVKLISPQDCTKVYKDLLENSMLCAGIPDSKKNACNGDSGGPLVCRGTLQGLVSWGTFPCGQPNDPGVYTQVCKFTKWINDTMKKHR

What is called IC50 is the point on the concentration scale where inhibition reaches its midpoint. The low end stands for higher potency, the high end for lower potency. Regarding `N=C(N)c1cccc(CC(NS(=O)(=O)c2cccc(-c3ccc(Cl)cc3Cl)c2)c2nc3ccccc3s2)c1` (racemic) [3 (racemic), 3-[2-(1,3-Benzothiazol-2-yl)-2-{2′,4′-dichloro-[1,1′-biphenyl]-3-sulfonamido}ethyl]benzene-1-carboximidamide], the IC50 was more than 30 µM in [1]; more than 10 µM against Cathepsin B; more than 10 µM against Cathepsin L; more than 10 µM against FVIIa (FVIIa); more than 10 µM on Furin; more than 10 µM against Kallikrein 5. In addition, the IC50 on Kallikrein 7 is more than 10 µM; against Plasma Kallikrein, more than 10 µM; against TACE it was more than 10 µM; on Thrombin a, less than 10 µM; on Tryptase g1 it was less than 10 µM.

On to `N=C(N)c1cccc(CC(NS(=O)(=O)c2ccccc2)c2nc3ccccc3s2)c1` (racemic) [1 (racemic mixture, batch 1), 3-[2-Benzenesulfonamido-2-(1,3-benzothiazol-2-yl)ethyl]benzene-1-carboximidamide], for which the IC50 in experiment [1] was less than 30 µM; against Cathepsin B it was more than 10 µM; on Cathepsin L, more than 10 µM; on FVIIa (FVIIa), more than 10 µM; against Furin, more than 10 µM; against Kallikrein 5, more than 10 µM. In addition, the IC50 at Kallikrein 7, against Plasma Kallikrein, at TACE, at Thrombin a and against Tryptase g1 was more than 10 µM in each case.

Consider `COc1ccc2nc(C(Cc3cccc(C(=N)N)c3)NS(=O)(=O)c3ccccc3)sc2c1` (stereo not shown) [Compound 11, 3-[2-Benzenesulfonamido-2-(6-methoxy-1,3-benzothiazol-2-yl)ethyl]benzene-1-carboximidamide], for which the IC50 against Cathepsin B, at Cathepsin L, on FVIIa (Factor VIIa), at Furin, against Kallikrein 5 and against Kallikrein 7 was more than 10 µM each time. In addition, the IC50 against Plasma Kallikrein, on TACE, against Thrombin a and at Tryptase g1 was more than 10 µM in each case.

With `N=C(N)c1cccc(C[C@H](NS(=O)(=O)c2ccccc2)c2nnco2)c1` (single isomer, unassigned) [Compound 2 (enantiomer 1, batch 1), 3-[2-Benzenesulfonamido-2-(1,3,4-oxadiazol-2-yl)ethyl]benzene-1-carboximidamide], the IC50 in [1] was more than 30 µM; on Cathepsin B, more than 10 µM; at Cathepsin L it was more than 10 µM; against FVIIa (FVIIa) it was more than 10 µM; on Furin, more than 10 µM; against Kallikrein 5, more than 10 µM. Moreover, the IC50 on Kallikrein 7, against Plasma Kallikrein, against TACE, against Thrombin a and at Tryptase g1 was more than 10 µM in each case.
